In general, Ki refers to a dissociation constant, usually derived from enzyme kinetics or from competition with a known ligand. A high value points to lower affinity.

Each structure is given as a SMILES string.

The target of one assay is Sodium-dependent serotonin transporter (Rattus norvegicus, UniProt P31652). The assay is described as follows: Displacement of [3H]-citalopram from SERT in rat cerebral cortex after 1 hr by liquid scintillation counting analysis. It is filed as tissue-based. On the technique in general: Loss of bound radioactivity is the signal in a displacement assay; it reports binding, not function.
Sodium-dependent serotonin transporter, sequence (P31652 whole entry): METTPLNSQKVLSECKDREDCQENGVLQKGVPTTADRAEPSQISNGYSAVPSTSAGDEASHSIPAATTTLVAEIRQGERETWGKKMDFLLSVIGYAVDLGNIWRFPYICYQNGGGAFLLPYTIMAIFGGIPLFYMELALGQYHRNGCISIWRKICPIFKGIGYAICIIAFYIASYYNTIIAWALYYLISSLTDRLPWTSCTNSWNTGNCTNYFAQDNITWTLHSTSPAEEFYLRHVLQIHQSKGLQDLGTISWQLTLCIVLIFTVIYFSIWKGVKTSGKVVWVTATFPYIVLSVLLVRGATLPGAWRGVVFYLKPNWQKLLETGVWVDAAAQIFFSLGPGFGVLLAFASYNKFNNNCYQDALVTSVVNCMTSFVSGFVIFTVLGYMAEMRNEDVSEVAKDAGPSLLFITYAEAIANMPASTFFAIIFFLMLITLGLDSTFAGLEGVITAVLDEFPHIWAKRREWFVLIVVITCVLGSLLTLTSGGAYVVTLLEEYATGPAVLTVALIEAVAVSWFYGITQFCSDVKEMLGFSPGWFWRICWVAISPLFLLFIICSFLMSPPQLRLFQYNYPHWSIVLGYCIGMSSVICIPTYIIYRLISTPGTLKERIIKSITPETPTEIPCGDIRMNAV
Regarding `O=C1CC(c2c[nH]c3ccccc23)C(=O)N1CCCCN1CC=C(c2c[nH]c3ccc(Cl)cc23)CC1` (racemic), the affinity, expressed as Ki, was 0.0744 µM.
In turn, `O=C1CC(c2c[nH]c3ccccc23)C(=O)N1CCCCN1CC=C(c2c[nH]c3ccc(Br)cc23)CC1` (racemic) returned a Ki of 0.208 µM.
Compound `O=C1CC(c2c[nH]c3ccccc23)C(=O)N1CCCN1CC=C(c2c[nH]c3ccccc23)CC1` (racemic) displayed a Ki of 0.004 µM. This Ki is about 52-fold lower than that of the compound before.
The compound `O=C1CC(c2c[nH]c3ccccc23)C(=O)N1CCCN1CC=C(c2c[nH]c3ccc(Cl)cc23)CC1` (racemic) showed a Ki of 0.0507 µM. Compared with the last compound, the Ki is about 13-fold higher.
Regarding `O=C1CC(c2c[nH]c3ccccc23)C(=O)N1CCCN1CC=C(c2c[nH]c3ccc(Br)cc23)CC1` (racemic), the affinity, expressed as Ki, was 0.182 µM.
On to `O=C1CC(c2c[nH]c3ccccc23)C(=O)N1CCCN1CC=C(c2c[nH]c3ccc(F)cc23)CC1` (racemic), for which the affinity, expressed as Ki, was 0.0052 µM.
Same read-out and setting: with `COc1ccc2[nH]cc(C3=CCN(CCCN4C(=O)CC(c5c[nH]c6ccccc56)C4=O)CC3)c2c1` (racemic) the figure was 0.125 µM; with `O=C1CC(c2c[nH]c3ccccc23)C(=O)N1CCN1CC=C(c2c[nH]c3ccccc23)CC1` (racemic), 0.0338 µM; with `O=C1CC(c2c[nH]c3ccccc23)C(=O)N1CCN1CC=C(c2c[nH]c3ccc(Cl)cc23)CC1` (racemic), 0.0967 µM.
On the same count and under the same terms, the value for `O=C1CC(c2c[nH]c3ccccc23)C(=O)N1CCN1CC=C(c2c[nH]c3ccc(Br)cc23)CC1` (racemic) was 0.673 µM; that for `O=C1CC(c2c[nH]c3ccccc23)C(=O)N1CCN1CC=C(c2c[nH]c3ccc(F)cc23)CC1` (racemic) was 0.0684 µM; that for `COc1ccc2[nH]cc(C3=CCN(CCN4C(=O)CC(c5c[nH]c6ccccc56)C4=O)CC3)c2c1` (racemic) was 0.784 µM.
On the same count and under the same terms, the value for `O=C1CC(c2c[nH]c3ccccc23)C(=O)N1CCCN1CCC(c2c[nH]c3ccccc23)CC1` (racemic) was 0.354 µM.

Another assay deals with T1, 5-hydroxytryptamine receptor 1A (Rattus norvegicus, UniProt P19327).
T1 sequence (P19327 whole entry): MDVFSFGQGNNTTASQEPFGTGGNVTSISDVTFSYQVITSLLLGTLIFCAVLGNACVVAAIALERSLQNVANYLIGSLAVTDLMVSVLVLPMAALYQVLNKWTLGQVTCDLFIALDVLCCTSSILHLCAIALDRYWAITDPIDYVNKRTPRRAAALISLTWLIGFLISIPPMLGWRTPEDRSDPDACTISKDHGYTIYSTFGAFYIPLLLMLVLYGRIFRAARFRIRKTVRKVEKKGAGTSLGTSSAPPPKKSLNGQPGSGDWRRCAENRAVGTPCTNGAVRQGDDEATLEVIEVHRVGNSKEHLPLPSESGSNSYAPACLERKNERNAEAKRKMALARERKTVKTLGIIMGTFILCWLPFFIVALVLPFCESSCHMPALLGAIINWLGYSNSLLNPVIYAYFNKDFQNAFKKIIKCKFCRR
Put plainly: Displacement of [3H]-8-OH-DPAT from 5HT1A receptor in rat hippocampal membranes after 20 mins. Format: cell membranes, Hippocampus, Membrane.
Regarding `O=C1CC(c2c[nH]c3ccccc23)C(=O)N1CCCCN1CC=C(c2c[nH]c3ccc(Cl)cc23)CC1` (racemic), the Ki is 0.0687 µM.
Still for that read-out and setting: the value for `O=C1CC(c2c[nH]c3ccccc23)C(=O)N1CCCCN1CC=C(c2c[nH]c3ccc(Br)cc23)CC1` (racemic) was 0.0591 µM.
Compound `O=C1CC(c2c[nH]c3ccccc23)C(=O)N1CCCN1CC=C(c2c[nH]c3ccccc23)CC1` (racemic) registered a Ki of 0.161 µM.
On the same count and under the same terms, with `O=C1CC(c2c[nH]c3ccccc23)C(=O)N1CCCN1CC=C(c2c[nH]c3ccc(Cl)cc23)CC1` (racemic) the figure was 0.285 µM.
Take `O=C1CC(c2c[nH]c3ccccc23)C(=O)N1CCCN1CC=C(c2c[nH]c3ccc(Br)cc23)CC1` (racemic): affinity was put at a Ki of 0.111 µM.
Compound `O=C1CC(c2c[nH]c3ccccc23)C(=O)N1CCCN1CC=C(c2c[nH]c3ccc(F)cc23)CC1` (racemic) displayed a Ki of 0.106 µM.
In the case of `COc1ccc2[nH]cc(C3=CCN(CCCN4C(=O)CC(c5c[nH]c6ccccc56)C4=O)CC3)c2c1` (racemic), the affinity corresponds to a Ki of 0.21 µM.
Same read-out and setting: with `O=C1CC(c2c[nH]c3ccccc23)C(=O)N1CCN1CC=C(c2c[nH]c3ccccc23)CC1` (racemic) the figure was 0.25 µM.
`O=C1CC(c2c[nH]c3ccccc23)C(=O)N1CCN1CC=C(c2c[nH]c3ccc(Cl)cc23)CC1` (racemic) had an inhibitory constant (Ki) of 0.406 µM. This Ki is about 1.6-fold higher than that of the compound before.
Still for that read-out and setting: with `O=C1CC(c2c[nH]c3ccccc23)C(=O)N1CCN1CC=C(c2c[nH]c3ccc(Br)cc23)CC1` (racemic) the figure was 0.324 µM.
In turn, `O=C1CC(c2c[nH]c3ccccc23)C(=O)N1CCN1CC=C(c2c[nH]c3ccc(F)cc23)CC1` (racemic) had a Ki of 0.372 µM. This Ki and that of the compound before are within 1.5-fold of each other.
The same measure, in the same setting: the value for `COc1ccc2[nH]cc(C3=CCN(CCN4C(=O)CC(c5c[nH]c6ccccc56)C4=O)CC3)c2c1` (racemic) was 1.74 µM.
Same read-out and setting: with `O=C1CC(c2c[nH]c3ccccc23)C(=O)N1CCCN1CCC(c2c[nH]c3ccccc23)CC1` (racemic) the figure was 0.0685 µM.

The values are drawn from ChEMBL document CHEMBL2375249, “Synthesis and biological evaluation of novel pyrrolidine-2,5-dione derivatives as potential antidepressant agents. Part 1” (Eur J Med Chem, 2013).
